Literature values in US20070026383A1, “Methods and compositions for extracting membrane proteins” (Quintessence Biosciences, Inc., priority 2005, published 2007).

What was measured:
[1] = not given; remark: listed apart in the source

CCc1c2c(nc3ccc(OC(=O)N4CCC(NCCCCC(=O)O)CC4)cc13)-c1cc3c(c(=O)n1C2)COC(=O)C3(O)CC (centres unmarked) [APC, 7-ethyl-10[4-N-(5-aminopentanoic acid)-1piperidino]carbonyloxycamptothecin]
fold weaker antitumor activity compared with SN-38 (relative to SN-38): 500 fold
antitumor activity in vitro [1]: weak antitumor activity

CCc1c2c(nc3ccc(O[C@@H]4O[C@H](C(=O)O)[C@@H](O)[C@H](O)[C@H]4O)cc13)-c1cc3c(c(=O)n1C2)COC(=O)[C@]3(O)CC [SN-38G, 10-O-glucuronyl-SN-38]
activity of metabolite (glucuronide of SN-38): inactive

CCc1c2c(nc3ccc(OC(=O)N4CCC(N)CC4)cc13)-c1cc3c(c(=O)n1C2)COC(=O)[C@]3(O)CC [NPC, 7-ethyl-10-(4-amino-1-piperidino)carbonyloxycamptothecin]
antitumor activity in vitro [1]: weak antitumor activity

CCc1c2c(nc3ccc(O)cc13)-c1cc3c(c(=O)n1C2)COC(=O)[C@]3(O)CC [SN-38, 7-ethyl-10-hydroxycamptothecin]
fold higher antitumor activity than Irinotecan (relative to Irinotecan): 100-1,000 fold
